Data from patent publication US5215983A, “Carbapenem compounds” (Fujisawa Pharmaceutical Co., Ltd., priority 1989, dated 1993).

System: P. aeruginosa 2
Assay: in vitro Antimicrobial Activity (two-fold agar-plate dilution method)
Type: cell-based
Settings: Pseudomonas aeruginosa, 10^6 viable cells per ml, heart infusion agar, 37° C. for 20 hours, read-out: MIC (minimal inhibitory concentration)
Procedure: in vitro Antimicrobial Activity was determined by the two-fold agar-plate dilution method as described blow.
One loopful of an overnight culture of a test strain in Trypticase-soy broth (10^6 viable cells per ml) was streaked on heart infusion agar (HI-agar) containing graded concentrations of the test compound, and the minimal inhibitory concentration (MIC) was expressed in terms of μg/ml after incubation at 37° C. for 20 hours.

MIC: 0.39 µg/mL
Structure (SMILES): C[C@@H](O)[C@H]1C(=O)N2C(C(=O)O)=C(S[C@@H]3CN[C@H](CN4CCCn5c4cc[n+]5C)C3)[C@H](C)[C@H]12 [Example 1-3, (4R,5S,6S)-6-[(1R)-1-hydroxyethyl]-4-methyl-3-[(2S,4S)-2-{1-methyl-4,5,6,7-tetrahydro-4-pyrazolo[1,5-a]pyrimidinio}methylpyrrolidin-4-yl]thio-7-oxo-1-azabicyclo[3.2.0]-hept-2-ene-2-carboxylic acid chloride]
